{
  "source": "patent US12042473B2",
  "about": "“Compounds and combinations thereof for treating neurological and psychiatric conditions” (priority 2022, dated 2024)",
  "key": {"[1]": {"conditions": "human, in vivo"}, "[2]": {"test": "Co-administration of paroxetine and the subject combination in healthy volunteers (Example 3)", "text": "Co-administration of the SSRI paroxetine and the subject combination was studied in 29 healthy volunteers."}, "[3]": {"test": "Pharmacokinetics of the subject combination in CYP2D6 poor metabolizers (Example 2)", "text": "Approximately 7 to 10% of Caucasians and 3 to 8% of African Americans lack the capacity to metabolize CYP2D6 substrates and are classified as poor metabolizers."}, "[4]": {"test": "Pharmacokinetics after administration of the subject combination (steady state)", "conditions": "for apparent elimination half-life: bupropion metabolites"}, "[5]": {"test": "Pharmacokinetics of the subject combination in moderate renal impairment (Example 1)", "conditions": "moderate renal impairment (GFR 30-60 mL/min)"}, "[6]": {"test": "Food effect on pharmacokinetics of the subject combination", "type": "in vivo, human", "conditions": "subject combination administered with food"}, "[7]": {"conditions": "cited from earlier work; for incidence of sedation (MOAA/S score <5): treatment-resistant depression"}},
  "note": "Where a name gives a salt, the structure may show the parent alone. Read-outs that look alike come from different tables or passages of the source.",
  "data": [
    {"smiles": "CC(NC(C)(C)C)C(=O)c1cccc(Cl)c1.Cl", "note": "(racemic) [bupropion, (±)-1-(3-chlorophenyl)-2-[(1,1-dimethylethyl)amino]-1-propanone hydrochloride]", "values": [
      {"measurement": "increase in exposure versus matched controls with normal renal function", "setting": "[1]", "result": "approximately 2 fold"},
      {"measurement": "reduction in clearance versus matched controls with normal renal function", "setting": "[1]", "result": 50, "unit": "%"},
      {"measurement": "increase in overall exposure when paroxetine is co-administered with the subject combination", "setting": "[2]; human, in vivo", "result": "no effect"}
    ]},
    {"smiles": "COc1ccc2c(c1)[C@]13CCCC[C@@H]1[C@H](C2)N(C)CC3", "note": "[dextromethorphan, morphinan, 3-methoxy-17-methyl-, (9α, 13α, 14α), hydrobromide monohydrate]", "values": [
      {"measurement": "steady state plasma concentrations compared with non-poor metabolizers", "setting": "[3]; 12 poor metabolizers in efficacy trials", "result": "generally higher"},
      {"measurement": "increase in AUC0-12 compared to extensive metabolizers", "setting": "[3]; CYP2D6 poor metabolizers", "result": "~3.4", "unit": "fold"},
      {"measurement": "increase in Cmax compared to extensive metabolizers", "setting": "[3]; CYP2D6 poor metabolizers", "result": "~3", "unit": "fold"},
      {"measurement": "increase in mean elimination half-life versus dextromethorphan given without bupropion", "setting": "[4]; 8 days of subject combination, extensive metabolizers", "result": "approximately 3 fold"},
      {"measurement": "median Tmax", "setting": "[4]; after administration of the subject combination", "result": "about 3 hours"},
      {"measurement": "dose proportionality of AUC and Cmax at steady state", "setting": "[4]; co-administered with bupropion, dextromethorphan 30 to 60 mg, bupropion 75 to 150 mg", "result": "nonlinear pharmacokinetics"},
      {"measurement": "mean elimination half-life", "setting": "[4]; human, in vivo", "result": 22, "unit": "h"},
      {"measurement": "increase in overall exposure when paroxetine is co-administered with the subject combination", "setting": "[2]; healthy volunteers", "result": 2.5, "unit": "fold"},
      {"measurement": "increase in exposure versus matched controls with normal renal function", "setting": "[5]", "result": "approximately 2 fold"},
      {"measurement": "reduction in clearance versus matched controls with normal renal function", "setting": "[5]", "result": 50, "unit": "%"},
      {"measurement": "decrease in AUC0-12 with food", "setting": "[6]", "result": 14, "unit": "%"}
    ]},
    {"smiles": "CC(NC(C)(C)C)C(O)c1cccc(Cl)c1", "note": "(stereo not shown) [erythrohydroxybupropion]", "values": [
      {"measurement": "apparent elimination half-life", "setting": "[4]", "result": "~44", "unit": "h"}
    ]},
    {"smiles": "CN[C@]1(c2ccccc2Cl)CCCCC1=O", "note": "[esketamine, Esketamine]", "values": [
      {"measurement": "incidence of sedation (MOAA/S score <5)", "setting": "[7]; 56 mg + oral AD, patients <65 years, fixed-dose study", "result": 50, "unit": "%"},
      {"measurement": "incidence of sedation (MOAA/S score <5)", "setting": "[7]; 84 mg + oral AD, patients <65 years, fixed-dose study", "result": 61, "unit": "%"},
      {"measurement": "incidence of sedation (MOAA/S score <5)", "setting": "[7]; 28 to 84 mg + oral AD, patients ≥65 years, flexible-dose study", "result": 49, "unit": "%"},
      {"measurement": "incidence of sedation (MOAA/S score<5) compared to placebo plus oral antidepressant", "setting": "[7]; plus oral antidepressant, adults with MDD with acute suicidal ideation or behavior", "result": "higher incidence of sedation"}
    ]},
    {"smiles": "C[C@H]1NC(C)(C)CO[C@]1(O)c1cccc(Cl)c1", "note": "[hydroxybupropion]", "values": [
      {"measurement": "apparent elimination half-life", "setting": "[4]", "result": "approximately 35 hours"}
    ]},
    {"smiles": "Fc1ccc([C@@H]2CCNC[C@H]2COc2ccc3c(c2)OCO3)cc1", "note": "[paroxetine]", "values": [
      {"measurement": "increase in overall exposure of paroxetine when co-administered with the subject combination", "setting": "[2]; human, in vivo", "result": 1.2, "unit": "fold"}
    ]},
    {"smiles": "C[C@H](NC(C)(C)C)[C@@H](O)c1cccc(Cl)c1", "note": "[threohydroxybupropion]", "values": [
      {"measurement": "apparent elimination half-life", "setting": "[4]", "result": "~33", "unit": "h"}
    ]}
  ]
}
